Experimental data reported in US9615577B2, “Herbicidally active cyclic dione compounds, or derivatives therefor, substituted by a phenyl which has an alkynyl-containing substituent” (Syngenta Limited, priority 2012, dated 2017).

Key:
Type in all cases: in vivo
[1] = system: Alopecurus myosuroides (ALOMY); experiment: Biological Example 2 comparative herbicidal data, post-emergence glasshouse screen; settings: 312 h, read-out: Post-emergence herbicidal activities (percentage phytotoxicity) ALOMY; for pest or weed control at 15.625 g/ha: 15.625 g/ha application rate; for pest or weed control at 62.5 g/ha: 62.5 g/ha application rate
Description: (§1) Seeds of a variety of test species were sown in standard soil in pots. After cultivation for one day (pre-emergence) or after 8 days cultivation (post-emergence) under controlled conditions in a glasshouse (at 24/16° C., day/night; 14 hours light; 65% humidity), the plants were sprayed with an aqueous spray solution derived from the formulation of the technical active ingredient in acetone/I water (50:50) solution containing 0.5% Tween 20 (polyoxyethelyene sorbitan monolaurate, CAS RN 9005-64-5). The test plants were then grown in a glasshouse under controlled conditions in a glasshouse (at 24/16° C., day/night; 14 hours light; 65% humidity) and watered twice daily. After 13 days for pre and post-emergence, the test was evaluated visually for percentage phytotoxicity to the plant (where 100=total damage to plant; 0=no damage to plant).
(§2) Comparative herbicidal data is given below for certain exemplified compounds with 4-(prop-1-ynyl)-2,6-dimethylphenyl or 4-(chloroethynyl)-2,6-dimethylphenyl headgroups, compared to the corresponding compounds with either 4-ethynyl-2,6-dimethylphenyl or 2,4,6-trimethylphenyl headgroups, as follows. Comparative herbicidal data is also given below for certain exemplified compounds with 4-(prop-1-ynyl)-2-chloro-6-methoxyphenyl headgroups, compared to the corresponding compounds with 4-ethynyl-2-chloro-6-methoxyphenyl or 4-(but-1-ynyl)-2-chloro-6-methoxyphenyl or 4-methyl-2-chloro-6-methoxyphenyl or 2-chloro-6-methoxyphenyl headgroups, as follows.
(§3) Except where specified otherwise, the glasshouse screen for herbicidal activity is substantially the same as that presented in Biological Example 1A (Test 1A) hereinabove. The weed abbreviations are as defined in Biological Example 1A.

[2] = system: Echinochloa crus-galli (ECHCG); experiment: as above; settings: 312 h, read-out: Post-emergence herbicidal activities (percentage phytotoxicity) ECHCG; for pest or weed control at 15.625 g/ha: 15.625 g/ha application rate; for pest or weed control at 62.5 g/ha: 62.5 g/ha application rate
Description: as §1, §2, §3

Setaria faberi (SETFA) [3] = experiment: as above; settings: 312 h, read-out: Post-emergence herbicidal activities (percentage phytotoxicity) SETFA; for pest or weed control at 15.625 g/ha: 15.625 g/ha application rate; for pest or weed control at 62.5 g/ha: 62.5 g/ha application rate
Description: as §1, §2, §3

[4] = system: Abutilon theophasti Medik. (ABUTH); experiment: Test 1A glasshouse assay for herbicidal activity, pre-emergence; settings: 312 h, 250 g/ha, evaluated after 13 days, read-out: percentage phytotoxicity ABUTH
Description: as §1
(§4) Alopecurus myosuroides (ALOMY), Setaria faberi (SETFA), Echinochloa crus-galli (ECHCG), Solanum nigrum (SOLNI), Amaranthus retroflexus (AMARE), Ipomoea hederacea (IPOHE), and Abutilon theophasti Medik. (ABUTH, common English name “velvetleaf”). Of these, Alopecurus myosuroides (ALOMY), Setaria faberi (SETFA), and Echinochloa crus-galli (ECHCG) are grassy monocotyledonous weeds.

[5] = system: Alopecurus myosuroides (ALOMY); experiment: as above; settings: 312 h, 250 g/ha, evaluated after 13 days, read-out: percentage phytotoxicity ALOMY
Description: as §1, §4

[6] = system: Amaranthus retroflexus (AMARE); experiment: as above; settings: 312 h, 250 g/ha, evaluated after 13 days, read-out: percentage phytotoxicity AMARE
Description: as §1, §4

[7] = system: Echinochloa crus-galli (ECHCG); experiment: as above; settings: 312 h, 250 g/ha, evaluated after 13 days, read-out: percentage phytotoxicity ECHCG
Description: as §1, §4

Setaria faberi (SETFA) [8] = experiment: as above; settings: 312 h, 250 g/ha, evaluated after 13 days, read-out: percentage phytotoxicity SETFA
Description: as §1, §4

[9] = system: Abutilon theophasti Medik. (ABUTH); experiment: Test 1A glasshouse assay for herbicidal activity, post-emergence; settings: 312 h, evaluated after 13 days, read-out: percentage phytotoxicity ABUTH
Description: as §1, §4

[10] = system: Alopecurus myosuroides (ALOMY); experiment: as above; settings: 312 h, evaluated after 13 days, read-out: percentage phytotoxicity ALOMY
Description: as §1, §4

[11] = system: Amaranthus retroflexus (AMARE); experiment: as above; settings: 312 h, evaluated after 13 days, read-out: percentage phytotoxicity AMARE
Description: as §1, §4

[12] = system: Echinochloa crus-galli (ECHCG); experiment: as above; settings: 312 h, evaluated after 13 days, read-out: percentage phytotoxicity ECHCG
Description: as §1, §4

Setaria faberi (SETFA) [13] = experiment: as above; settings: 312 h, evaluated after 13 days, read-out: percentage phytotoxicity SETFA
Description: as §1, §4

Structure (SMILES) | pest or weed control at 250 g/ha [4] | pest or weed control at 250 g/ha [5] | pest or weed control at 250 g/ha [6] | pest or weed control at 250 g/ha [7] | pest or weed control at 250 g/ha (Setaria faberi (SETFA) [8]) | pest or weed control at 250 g/ha [9] | pest or weed control at 250 g/ha [10] | pest or weed control at 250 g/ha [11] | pest or weed control at 250 g/ha [12] | pest or weed control at 250 g/ha (Setaria faberi (SETFA) [13]) | pest or weed control at 30 g/ha [9] | pest or weed control at 30 g/ha [10] | pest or weed control at 30 g/ha [11] | pest or weed control at 30 g/ha [12] | pest or weed control at 30 g/ha (Setaria faberi (SETFA) [13]) | further results
C#Cc1cc(C)c(C2C(=O)C3CCC(C3)C2=O)c(C)c1 (centres unmarked) [Compound X-2, reference compound] | – | – | – | – | – | – | – | – | – | – | – | – | – | – | – | pest or weed control at 15.625 g/ha [1]: 0%; pest or weed control at 62.5 g/ha [1]: 10%; pest or weed control at 15.625 g/ha [2]: 0%; pest or weed control at 62.5 g/ha [2]: 70%; pest or weed control at 15.625 g/ha (Setaria faberi (SETFA) [3]): 50%; pest or weed control at 62.5 g/ha (Setaria faberi (SETFA) [3]): 60%
CC#Cc1ccc(C2C(=O)C3CCC(C3)C2=O)c(Cl)c1 (centres unmarked) [Compound A-11] | 50% | 100% | 70% | 100% | 80% | 80% | 100% | 30% | 100% | 100% | – | – | – | – | – | –
CC#Cc1cc(Cl)c(C2C(=O)C3CCC(C3)C2=O)c(OCC(F)(F)F)c1 (centres unmarked) [Compound A-19, 3-[2-chloro-4-prop-1-ynyl-6-(2,2,2-trifluoroethoxyl)phenyl]bicyclo[3.2.1]octane-2,4-dione] | 0% | 40% | 0% | 60% | 60% | 0% | 70% | 0% | 100% | 90% | – | – | – | – | – | –
CC#Cc1cc(Cl)c(C2C(=O)CC(CCSC)CC2=O)c(OC)c1 (centres unmarked) [Compound A-23, 2-(2-Chloro-6-methoxy-4-prop-1-ynyl-phenyl)-5-(2-methylsulfanylethyl)cyclohexane-1,3-dione] | 30% | 90% | 70% | 100% | 90% | 70% | 90% | 20% | 100% | 100% | 30% | 60% | 10% | 100% | 100% | –
C#Cc1cc(C)c(C2C(=O)CC(CC3CCOCC3)CC2=O)c(C)c1 (centres unmarked) [Compound X-3, reference compound] | – | – | – | – | – | – | – | – | – | – | – | – | – | – | – | pest or weed control at 15.625 g/ha [1]: 30%; pest or weed control at 62.5 g/ha [1]: 60%; pest or weed control at 15.625 g/ha [2]: 20%; pest or weed control at 62.5 g/ha [2]: 50%; pest or weed control at 15.625 g/ha (Setaria faberi (SETFA) [3]): 60%; pest or weed control at 62.5 g/ha (Setaria faberi (SETFA) [3]): 70%
C#Cc1ccc(C2C(=O)C(C)(C)OC(C)(C)C2=O)c(C)c1 [Compound X-1, reference compound] | – | – | – | – | – | – | – | – | – | – | – | – | – | – | – | pest or weed control at 15.625 g/ha [1]: 20%; pest or weed control at 62.5 g/ha [1]: 10%; pest or weed control at 15.625 g/ha [2]: 0%; pest or weed control at 62.5 g/ha [2]: 0%; pest or weed control at 15.625 g/ha (Setaria faberi (SETFA) [3]): 0%; pest or weed control at 62.5 g/ha (Setaria faberi (SETFA) [3]): 30%
CC#Cc1cc(C)c(C2=C(OC(=O)C(C)(C)C)C3CCC(C3)C2=O)c(C)c1 (centres unmarked) [Compound P-5] | 0% | 100% | 0% | 100% | 100% | 70% | 90% | 10% | 100% | 90% | 0% | 60% | 0% | 80% | 70% | –
CC#Cc1cc(Cl)c(C2=C(OC(=O)C(C)(C)C)C3CCC(C3)C2=O)c(OC)c1 (centres unmarked) [Compound P-7] | 0% | 100% | 0% | 100% | 100% | 70% | 100% | 0% | 100% | 100% | 10% | 90% | 0% | 100% | 90% | –
CC#Cc1cc(Cl)c(C2=C(OC(=O)SCC)C3CCC(C3)C2=O)c(OCC(F)(F)F)c1 (centres unmarked) [Compound P-6, [3-[2-Chloro-4-prop-1-ynyl-6-(2,2,2-trifluoroethoxyl)phenyl]-4-oxo-2-bicyclo[3.2.1]oct-2-enyl]ethylsulfanylformate] | 0% | 10% | 20% | – | 10% | 0% | 50% | 20% | 80% | 50% | – | – | – | – | – | –
CC#Cc1cc(C)c(C2=C(OS(C)(=O)=O)CC(CC3CCOCC3)CC2=O)c(C)c1 (centres unmarked) [Compound P-4] | 10% | 80% | 20% | 100% | 80% | 0% | 80% | 0% | 80% | 80% | – | – | – | – | – | –
CC#Cc1cc(Cl)c(C2=C(OC(=O)c3ccc(Cl)cc3)CC(C3CCOCC3)CC2=O)c(OC)c1 (centres unmarked) [Compound P-3] | 80% | 100% | 100% | 100% | 100% | 80% | 90% | 80% | 100% | 100% | 70% | 100% | 80% | 100% | 100% | pest or weed control at 8 g/ha ([9]; 8 g/ha): 20%; pest or weed control at 8 g/ha ([10]; 8 g/ha): 90%; pest or weed control at 8 g/ha ([11]; 8 g/ha): 20%; pest or weed control at 8 g/ha ([12]; 8 g/ha): 100%; pest or weed control at 8 g/ha (Setaria faberi (SETFA) [13]; 8 g/ha): 100%
